Measured values taken from ChEMBL document CHEMBL1152634, “Synthesis and evaluation of novel alpha-heteroaryl-phenylpropanoic acid derivatives as PPARalpha/gamma dual agonists” (Bioorg Med Chem, 2009).

Tests used:
[1] = AUC in rat at 1 mg/kg, iv; format: ADME, organism-based; design: dose 1 mg/kg, route intravenous; details: plasma
[2] = Half life in rat at 1 mg/kg, iv; format: ADME, organism-based; design: dose 1 mg/kg, route intravenous; details: in vivo
[3] = Clearance in rat at 1 mg/kg, iv; format: ADME, organism-based; design: dose 1 mg/kg, route intravenous; details: in vivo
[4] = Volume of distribution at steady state in rat at 1 mg/kg, iv; format: ADME, organism-based; design: dose 1 mg/kg, route intravenous; details: in vivo, read-out: Vdss
[5] = AUC in rat at 3 mg/kg, po; format: ADME, organism-based; design: dose 3 mg/kg, route oral; details: plasma
[6] = Oral bioavailability in rat at 3 mg/kg, po; format: ADME, organism-based; details: in vivo
[7] = AUC in dog at 1 mg/kg, iv; format: ADME, organism-based, Canis lupus familiaris; design: dose 1 mg/kg, route intravenous; details: plasma
[8] = Volume of distribution at steady state in dog at 1 mg/kg, iv; format: ADME, organism-based, Canis lupus familiaris; design: dose 1 mg/kg, route intravenous; details: in vivo, read-out: Vdss
[9] = AUC in dog at 3 mg/kg, po; format: ADME, organism-based, Canis lupus familiaris; design: dose 3 mg/kg, route oral; details: plasma
[10] = Oral bioavailability in dog at 3 mg/kg, po; format: ADME, organism-based, Canis lupus familiaris; details: in vivo
[11] = Half life in dog at 1 mg/kg, iv; format: ADME, organism-based, Canis lupus familiaris; design: dose 1 mg/kg, route intravenous; details: in vivo
[12] = Clearance in dog at 1 mg/kg, iv; format: ADME, organism-based, Canis lupus familiaris; design: dose 1 mg/kg, route intravenous; details: in vivo

`Cc1oc(-c2ccccc2)nc1CCCc1ccc(C[C@@H](C(=O)O)n2nccn2)cc1` gave an AUC [1] of 928 ng·h/mL, a half-life [2] of 7.5 h and a clearance [3] of 18 mL/min/kg. It also gave a Vd [4] of 2.9 L/kg, an AUC [5] of 1170 ng·h/mL and a bioavailability [6] of 42%. The AUC [7] was 3970 ng·h/mL, the Vd [8] was 0.82 L/kg and the AUC [9] was 13000 ng·h/mL. It also gave a bioavailability [10] of over 95%, a half-life [11] of 5.8 h and a clearance [12] of 4.4 mL/min/kg.
